# Laboratory results as given in patent publication US20100172870A1, “METHODS, USES AND COMPOSITIONS FOR MODULATING REPLICATION OF HCV THROUGH THE FARNESOID X RECEPTOR (FXR) ACTIVATION OR INHIBITION” (priority 2006, published 2010).
# Assays:
# [1] = test system: replicon transfected cells (Huh7); experiment: Toxicity for Huh7 / replicon transfected cells; format: cell-based, human
# Description: BAs, sterols and fatty acids are structurally related natural ligands of the NR1 family of nuclear receptors expressed in the liver and intestine. […] BAs were recently described as the natural ligands for FXR (Makishima M. et al. 2002; Parks D J. et al. 1999). To examine whether BAs were mediating their effects on HCV RNA replication through FXR we tested a panel of FXR ligands including the two formerly described FXR ligands that activate FXR at supraphysiological concentrations, farnesol and the synthetic retinoid TTNPB at a concentration of 10 μM each and other BAs such as CA, LCA, and UDCA, all at a concentration of 100 μM (FIG. 4B).
# [2] = test system: non-structural proteins NS4a and NS5a in R1b-transfected cells; experiment: HCV protein expression by immunofluorescence staining and FACS analysis; format: cell-based, hepatitis C virus (HCV); conditions: for NS5a positive cells by FACS analysis: 3 days of treatment (untreated 22%); for mean fluorescence intensity in the positive cells: NS5a-labeling, 3 days (untreated 16)
# Protocol: Immunofluorescence staining: Three days after electroporation, cells were plated in 8-well chamber slides at a density of 5×10^4 cells per well. 24 hours after, slides were washed in PBS and fixed in ⅔ acetone-ethanol for 5 minutes at −20° C. followed by 50 minutes block in PBS-glycin 0.2M. Primary antibodies were added to the cells at a 1:500 dilution in PBS-glycin 0.2M for 1 h at room temperature. After 3 washes in PBS, fluorescein conjugated secondary antibodies (Jackson ImmunoResearch) were added to the cells at a 1:50 dilution in PBS-glycin 0.2M for 40 minutes at room temperature. In the meantime, cells were counterstained with Evans Blue (Merck).
# FACS analysis: 72 h post-electroporation, single-cell suspension was prepared for FACS analysis. Briefly 0.8.10^6 cells were fixed and permeabilised for 15 min at room temperature with Cytofix/Cytoperm (PharMingen). Cells were stained for 30 min with primary antibodies at a 1:500 dilution in Perm/Wash Buffer (PharMingen). Bound monoclonal antibody was detected by incubation for 30 min at 4° C. with secondary antibody diluted 1:100 in Perm/Wash Buffer. The stained cells were resuspended in PBS prior to analysis using a FACSCalibur 3C (BD Biosciences).
# [3] = test system: genotype 1a replicon (R1a); experiment: HCV subgenomic replicon R1a luciferase assay; format: cell-based, hepatitis C virus (HCV); conditions: Huh7-Lunet cells, 72 h of treatment, CDCA 100 μM or GGS 10 μM
# Description: Replicons: Three subgenomic replicons were used in this study: two replicative forms called R1a and R1b according to their genotype origin and a derivative of the R1b replicon with a mutation in the RNA-dependant RNA polymerase (Rp-del) which is thus unable to replicate and was used as a negative control in all experiments. They are bicistronic RNAs which contains the firefly luciferase (Photinus pyralis) reporter gene downstream of the HCV IRES and the sequence coding for the polyprotein NS3 to NS5B downstream of the encephalomyocarditis virus (EMCV) IRES. […]
# Subconfluent monolayers of Huh7 cells were detached from the culture dish by trypsin treatment and rinsing with complete DMEM. The cells were washed once with phosphate buffer saline (PBS), counted and resuspended at 10^7 cells per mL in Cytomix buffer (Van den Hoff, M J. Et al. 1992). […]
# Luciferase Assay: Cells were washed with PBS and scraped off the plate with 80 μL of 1× Luciferase Cell Culture Lysis Reagent (Promega). […] Luminescence expressed as relative light units (RLU) was measured immediately on a scintillation counter (Top Count NXT, Perkin Elmer) for 10 s.
# (§1) The data are averages from triplicate cultures. […] The values are expressed as relative ratios of the values obtained 4 h after electroporation. Unless otherwise stated, the RLU values were determined 72 h after transfection when cells were confluent.
# [4] = biological target: T1, FXR (Homo sapiens, UniProt Q96RI1); conditions: Urizar N L. et al. 2002, cited from earlier work
# T1 construct: host or cells: HepG2
# T1 sequence (Q96RI1 1-486): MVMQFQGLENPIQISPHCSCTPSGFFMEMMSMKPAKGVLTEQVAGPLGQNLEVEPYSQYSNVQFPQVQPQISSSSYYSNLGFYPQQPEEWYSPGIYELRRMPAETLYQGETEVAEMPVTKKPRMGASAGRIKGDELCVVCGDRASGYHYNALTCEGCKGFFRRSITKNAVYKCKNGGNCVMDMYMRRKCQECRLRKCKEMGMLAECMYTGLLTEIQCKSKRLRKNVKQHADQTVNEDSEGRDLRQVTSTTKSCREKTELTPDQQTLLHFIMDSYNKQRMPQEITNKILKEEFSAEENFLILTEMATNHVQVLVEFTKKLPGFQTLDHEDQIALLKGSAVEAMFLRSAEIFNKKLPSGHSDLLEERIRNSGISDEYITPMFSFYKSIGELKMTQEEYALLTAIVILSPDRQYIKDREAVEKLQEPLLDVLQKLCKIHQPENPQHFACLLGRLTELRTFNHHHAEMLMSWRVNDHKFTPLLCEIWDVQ
# [5] = test system: genotype 1b replicon (R1b); experiment: HCV subgenomic replicon R1b luciferase assay; format: cell-based, hepatitis C virus (HCV)
# Description: Replicons: Three subgenomic replicons were used in this study: two replicative forms called R1a and R1b according to their genotype origin and a derivative of the R1b replicon with a mutation in the RNA-dependant RNA polymerase (Rp-del) which is thus unable to replicate and was used as a negative control in all experiments. They are bicistronic RNAs which contains the firefly luciferase (Photinus pyralis) reporter gene downstream of the HCV IRES and the sequence coding for the polyprotein NS3 to NS5B downstream of the encephalomyocarditis virus (EMCV) IRES.
# RNA transfection: The replicons were transfected into Huh7 cells by electroporation.
# Subconfluent monolayers of Huh7 cells were detached from the culture dish by trypsin treatment and rinsing with complete DMEM. […] 400 μL of the cell suspension was mixed by gentle pipetting with 8 μg RNA (R1a, R1b or Rp-del) and transferred into an electroporation cuvette with a gap-width of 0.4 cm (BioRad). The mixture was immediately subjected to one electric pulse at 270 V, 950 μF and maximum resistance using a Gene Pulser System (BioRad).
# After electroporation the 400 μL of each cell suspension was diluted in 9 mL complete DMEM and pooled together before being seeded onto 24-well plates (1 mL per well).
# Luciferase Assay: Cells were washed with PBS and scraped off the plate with 80 μL of 1× Luciferase Cell Culture Lysis Reagent (Promega). 40 μL of the lysate were transferred to a 96-well plate and mixed with 200 μL of Luciferase Assay Reagent (Promega). Luminescence expressed as relative light units (RLU) was measured immediately on a scintillation counter (Top Count NXT, Perkin Elmer) for 10 s.
# as §1
compound,measurement,setting,value
"C/C=C1\C(=O)CC2C3CCC4=CC(=O)CC[C@]4(C)C3CC[C@]12C (stereo partly drawn) [GGS, trans-4,17(20)-pregnadiene-3,16-dione]",concentrations toxic for the replicon transfected cells,[1]; replicon transfected cells,40 µM
same,NS4a and NS5a expression,[2]; 3 days of treatment,almost completely abolished
same,NS5a positive cells by FACS analysis,[2],4%
same,mean fluorescence intensity in the positive cells,[2],very weak fluorescence intensity
same,response of genotype 1a replicon to FXR-modulation,[3],same behaviour as genotype 1b
same,effect of GGS alone on FXR activity,"[4]; HepG2 cells, bile salt export pump promoter-driven luciferase construct",had no effect
same,concentration range antagonizing FXR,[4],micromolar range
same,inhibition at 20 µM,"[5]; Hepatitis C virus, Huh-7, Huh7-Lunet cells, 20 μM, 72 h, read-out: inhibition of the replication",≤ 95%
same,IC50,"[5]; Hepatitis C virus, Huh-7, Huh7-Lunet cells, basal replication, 72 h, read-out: inhibitory concentration causing a decrease of half the basal activity (IC50)",~2 µM
same,inhibition of the effect of CDCA on replication,"[5]; Huh7-Lunet cells, CDCA 100 μM, guggulsterone 0.01 μM up to 20 μM, 72 h",inhibited in a dose-dependent fashion
same,further decrease of luciferase activity when associated to a given concentration of IFN,"[5]; Huh7-Lunet cells, GGS 10 μM plus IFN, 72 h",about 10 fold
same,inhibition of the basal replication of HCV,"[5]; Huh7-Lunet cells, absence of BAs stimulation, 72 h",could also inhibit the basal replication
"C[C@H](CCC(=O)O)[C@H]1CC[C@H]2[C@@H]3[C@H](O)C[C@@H]4C[C@H](O)CC[C@]4(C)[C@H]3CC[C@]12C [CDCA, chenodeoxycholic acid]",NS5a positive cells by FACS analysis,[2],27%
same,mean fluorescence intensity in the positive cells,[2],39
same,response of genotype 1a replicon to FXR-modulation,[3],same behaviour as genotype 1b
same,effect on luciferase activity at 100 μM,"[5]; Huh7 cells, 72 h (FIG. 4B)",most potent activator
same,"effect on luciferase activity, dose-response","[5]; Huh7 cells, 10, 50 or 100 μM, 72 h",dose-dependent
same,concentration reaching maximum level of luciferase activity,"[5]; Huh7 cells, 72 h",100 µM
same,lowest concentration with detectable specific activity on luciferase,"[5]; Huh7 cells, 72 h",10 µM
same,"up-regulation of HCV RNA replication, comparison of free BAs","[5]; Huh7 cells, dose-response, 72 h",more efficiently than DCA
CC(=O)[C@H]1CC[C@H]2[C@@H]3CC=C4C[C@@H](O)CC[C@]4(C)[C@H]3CC[C@]12C [pregnenolone],effect on luciferase activity at 10 μM,"[5]; Huh7 cells, 72 h (FIG. 4B)",None of these compounds induced any upregulation of the luciferase activity
"C[C@H](CCC(=O)O)[C@H]1CC[C@H]2[C@@H]3CC[C@@H]4C[C@H](O)CC[C@]4(C)[C@H]3C[C@H](O)[C@]12C [DCA, deoxycholic acid]",mortality of treated cells compared to untreated,"[1]; Huh7 cells, 100 μM",No increase in the mortality
same,concentration reaching maximum level of luciferase activity,"[5]; Huh7 cells, 72 h",100 µM
same,increase of luciferase activity,"[5]; Huh7 cells, DCA 100 μM, 72 h of treatment, vs untreated R1b cells",15 fold
same,time over which high levels of luciferase activities could be maintained,"[5]; Huh7 cells, DCA 100 μM, long-term culture with passages every 3 or 4 days",more than 2 weeks
CC(C)CCC[C@@H](C)[C@H]1CC[C@H]2[C@@H]3CC=C4C[C@@H](O)CC[C@]4(C)[C@H]3CC[C@]12C [cholesterol],effect on luciferase activity at 10 μM,"[5]; Huh7 cells, 72 h (FIG. 4B)",did not show any effect on replication
CC(=O)[C@H]1CC[C@H]2[C@@H]3CCC4=CC(=O)CC[C@]4(C)[C@H]3CC[C@]12C [progesterone],effect on luciferase activity at 5 μM,"[5]; Huh7 cells, 72 h (FIG. 4B)",None of these compounds induced any upregulation of the luciferase activity
CC(C)CCC(O)[C@@H](C)[C@H]1CC[C@H]2[C@@H]3CC=C4C[C@@H](O)CC[C@]4(C)[C@H]3CC[C@]12C (some centres unmarked) [22-hydroxycholesterol],effect on luciferase activity at 5 μM,"[5]; Huh7 cells, 72 h (FIG. 4B)",did not show any effect on replication
C[C@H](CCCC(C)(C)O)[C@H]1CC[C@H]2[C@@H]3CC=C4C[C@@H](O)CC[C@]4(C)[C@H]3CC[C@]12C [25-hydroxycholesterol],effect on luciferase activity at 1 μM,"[5]; Huh7 cells, 1 μM, 72 h (FIG. 4B)",did not show any effect on replication
"C[C@H](CCC(=O)O)[C@H]1CC[C@H]2[C@@H]3[C@H](O)C[C@@H]4C[C@H](O)CC[C@]4(C)[C@H]3C[C@H](O)[C@]12C [CA, cholic acid]",effect on luciferase activity at 100 μM,"[5]; Huh7 cells, 72 h (FIG. 4B)",only weak activity
CC(C)=CCCC(C)=CCCC(C)=CCO [farnesol],effect on luciferase activity at 10 μM,"[5]; Huh7 cells, 72 h (FIG. 4B)",slightly increased
"C/C(=C\c1ccc(C(=O)O)cc1)c1ccc2c(c1)C(C)(C)CCC2(C)C [TTNPB, (E)-[(tetrahydrotetramethylnaphthalenyl)propenyl]benzoic acid]",effect on luciferase activity at 10 μM,"[5]; Huh7 cells, 72 h (FIG. 4B)",slightly increased
